Data from US10308595B2, “Albicidin derivatives, their use and synthesis” (priority 2013, dated 2019).
Read-outs that look alike come from different tables or passages of the source.

How the values were obtained:
Type in all cases: cell-based
[1] = tested on: test strains of the agar plate tests; assay: Test agar plates, control substance in the same tests (strains not named individually); conditions: active substance 1 mg/ml
Experimental: (§1) The dry compounds were dissolved in DMSO (1 mg/ml) and the so obtained stock solution was diluted with sterilized Millipore water 1:10 and 1:100
(§2) 20 μl of cryo stock of each strain were inoculated to 20 ml of Mueller-Hinton medium and grown overnight at 30° C. or 37° C. on a vertical shaker with 160 rpm. The inoculum for the test was adjusted by the 0.5 McFarland Standard (OD625 from 0.08 to 0.1)
(§3) Every plate is prepared by pouring 10 ml Mueller-Hinton agar into standard petri dishes (diam 94 mm). The so obtained Mueller-Hinton plates are overlayed with 4 ml Mueller-Hinton soft agar containing 100 μl suspension of the test strain.
(§4) After the soft agar turned solid, sterile susceptibility test discs were circular placed on the agar and on every test disc 10 μl compound was added. Each concentration is tested in triplicate. The agar dishes were incubated for 18 hours at a temperature of 30° C. or 37° C. Results are obtained by measuring the diameter of inhibition area around each test disc.
Test Agar Plates (Active Substance 1 mg/ml) Control Substance: […]

[2] = tested on: Escherichia coli albi-res (Montpellier); assay: Test agar plates (disc diffusion), diameter of inhibition area; conditions: 18 h, read-out: diameter of inhibition, Escherichia coli albi-res (Montpellier)
Experimental: as §1, §2
Escherichia coli albi-res (Montpellier) [gram. Neg.] Medium: MHB/37° C.
as §3, §4

[3] = tested on: Pseudomonas aeruginosa DSM1117; assay: as above; conditions: DSM1117, 18 h, read-out: diameter of inhibition, Pseudomonas aeruginosa DSM1117
Experimental: as §1, §2
Pseudomonas aeruginosa DSM1117 [gram. Neg.] Medium: MHB/37° C.
as §3, §4

Escherichia coli DH5α = assay: as above; conditions: 18 h, read-out: diameter of inhibition, Escherichia coli DH5α
Experimental: as §1, §2
Escherichia coli DH5α [gram. Neg.] Medium: MHB/37° C.
as §3, §4

[4] = tested on: Pseudomonas aeruginosa (PEG-10-2-61); assay: EN-ISO standard test (ISO 20776-1), MIC
Experimental: (§5) Furthermore, compounds were tested against the following bacteria
(§6) Pseudomonas aeruginosa (ATCC 27853 and PEG-10-2-61)
(§7) according to EN-ISO standard (ISO 20776-1: 2006. Clinical laboratory testing and in vitro diagnostic test systems—Susceptibility testing of infectious agents and evaluation of performance of antimicrobial susceptibility test devices—Part 1:Reference method for testing the in vitro activity of antimicrobial agents against rapidly growing aerobic bacteria involved in infectious diseases; German version EN ISO 20776-1:2006. Beuth-Verlag, Berlin).

[5] = tested on: Pseudomonas aeruginosa (ATCC 27853); assay: EN-ISO standard test (ISO 20776-1), MIC
Experimental: as §5, §6, §7

[6] = tested on: Micrococcus luteus DSM1790; assay: Test agar plates (disc diffusion), diameter of inhibition area; conditions: for zone of inhibition at 1000 µg/mL: Micrococcus luteus, DSM1790, 18 h, read-out: diameter of inhibition, Micrococcus luteus DSM1790; for Antibacterial activity, diameter of inhibition area, Micrococcus luteus: 10 μl per test disc, "—" no activity detected
Experimental: as §1, §2
Micrococcus luteus DSM1790 [gram. Pos.] Medium: MHB/37° C.
as §3, §4

[7] = tested on: Salmonella enteritidis (PEG-10-3-58); assay: EN-ISO standard test (ISO 20776-1), MIC
Experimental: as §5
Salmonella enteritidis (PEG-10-3-58),
as §7

[8] = tested on: Staphylococcus aureus DSM 2569; assay: Test agar plates (disc diffusion), diameter of inhibition area; conditions: DSM2569, 18 h, read-out: diameter of inhibition, Staphylococcus aureus DSM 2569
Experimental: as §1, §2
Staphylococcus aureus DSM 2569 [gram. Pos.] Medium: MHB/37° C.
as §3, §4

Bacillus subtilis DSM10 = assay: as above; conditions: for zone of inhibition at 1000 µg/mL: Bacillus subtilis, DSM10, 18 h, read-out: diameter of inhibition, Bacillus subtilis DSM10; for Antibacterial activity, diameter of inhibition area, Bacillus subtilis DSM 10: 10 μl per test disc, "—" no activity detected
Experimental: as §1, §2
Bacillus subtilis DSM10 [gram. Pos.] Medium: MHB/30° C.
as §3, §4

[9] = tested on: Staphylococcus aureus (PEG 10-38-22); assay: EN-ISO standard test (ISO 20776-1), MIC
Experimental: as §5, §7

[10] = tested on: Staphylococcus aureus (ATCC 29213); assay: EN-ISO standard test (ISO 20776-1), MIC
Experimental: as §5, §7

[11] = tested on: Escherichia coli (ATCC 25922, 100-2-49 and 100-2-56); assay: EN-ISO standard test (ISO 20776-1), MIC
Experimental: as §5, §7

[12] = tested on: Mycobacterium phlei DSM750; assay: Test agar plates (disc diffusion), diameter of inhibition area; conditions: concentration 1 mg/ml; 10 μl per test disc; "—" no activity detected
Experimental: as §1, §2
Mycobacterium phlei DSM750 [gram. Pos.] Medium: MHB/30° C.
as §3, §4

[13] = tested on: Escherichia coli K12 (W1130); assay: as above; conditions: 10 μl per test disc, "—" no activity detected
Experimental: as §1, §2
Escherichia coli K12 (W1130) [gram. Neg.] Medium: MHB/37° C.
as §3, §4

Bacillus megaterium = assay: as above; conditions: 10 μl per test disc, "—" no activity detected
Experimental: as §1, §2
Bacillus megaterium [gram. Pos.] Medium: MHB/30° C.
as §3, §4

[14] = test agar plates, active substance 1 mg/ml, more than 1 cm or more than 2 cm
[15] = test agar plates, active substance 1 mg/ml, "more than 1 cm and more than 2 cm" [sic]
[16] = test agar plates, active substance 1 mg/ml, more than 1 cm or more than 3.9 cm [sic]

COc1c(NC(=O)c2ccc(NC(=O)c3ccc(NC(=O)[C@H](CC#N)NC(=O)c4ccc(NC(=O)/C(C)=C/c5ccc(O)cc5)cc4)cc3)c(OC)c2O)ccc(C(=O)O)c1O [Natural albicidin, Albicidin]
diameter of inhibition, control substance in the same tests [1]: more than 1 cm

COc1c(NC(=O)c2ccc(NC(=O)c3ccc(NC(=O)C(CC#N)NC(=O)c4ccc(NC(=O)/C=C/c5ccc6c(c5)OCO6)cc4)cc3)c(OC)c2O)ccc(C(=O)O)c1O (stereo not shown) [Compound 5]
zone of inhibition at 1000 µg/mL [2, 14]: > 10 mm
zone of inhibition at 1000 µg/mL [3, 14]: > 10 mm
zone of inhibition at 1000 µg/mL (Escherichia coli DH5α; [14]): > 10 mm
MIC values, in words [4]: good to very good
MIC values, in words [5]: good to very good
zone of inhibition at 1000 µg/mL [6, 15]: > 10 mm
MIC values, in words [7]: good to very good
zone of inhibition at 1000 µg/mL [8, 15]: > 10 mm
zone of inhibition at 1000 µg/mL (Bacillus subtilis DSM10; [16]): > 10 mm
MIC values, in words [9]: good to very good
MIC values, in words [10]: good to very good
MIC values (minimal inhibitory concentration), in words [11]: good to very good

COc1c(NC(=O)c2ccc(NC(=O)c3ccc(NC(=O)C(CC#N)NC(=O)c4ccc(NC(=O)c5cscn5)cc4)cc3)c(OC)c2O)ccc(C(=O)O)c1O (stereo not shown) [Compound 16]
zone of inhibition at 1000 µg/mL [2, 14]: > 10 mm
zone of inhibition at 1000 µg/mL (Escherichia coli DH5α; [14]): > 10 mm
zone of inhibition at 1000 µg/mL [6, 15]: > 10 mm
MIC values, in words [7]: good to very good
zone of inhibition at 1000 µg/mL [8, 15]: > 10 mm
zone of inhibition at 1000 µg/mL (Bacillus subtilis DSM10; [16]): > 10 mm
MIC values (minimal inhibitory concentration), in words [11]: good to very good

COc1c(NC(=O)c2ccc(NC(=O)c3ccc(NC(=O)C(CC#N)NC(=O)c4ccc(NC(=O)/C(C)=C/c5ccc(F)cc5)cc4)cc3)c(OC)c2O)ccc(C(=O)O)c1O (stereo not shown) [Compound 1]
zone of inhibition at 1000 µg/mL [2, 14]: > 10 mm
zone of inhibition at 1000 µg/mL [3, 14]: > 10 mm
zone of inhibition at 1000 µg/mL (Escherichia coli DH5α; [14]): > 10 mm
MIC values, in words [4]: good to very good
MIC values, in words [5]: good to very good
zone of inhibition at 1000 µg/mL [6, 15]: > 10 mm
MIC values, in words [7]: good to very good
zone of inhibition at 1000 µg/mL [8, 15]: > 10 mm
zone of inhibition at 1000 µg/mL (Bacillus subtilis DSM10; [16]): > 10 mm
MIC values, in words [9]: good to very good
MIC values, in words [10]: good to very good
MIC values (minimal inhibitory concentration), in words [11]: good to very good

COc1c(NC(=O)c2ccc(NC(=O)c3ccc(NC(=O)C(CC#N)NC(=O)c4ccc(NC(=O)C5CCCCC5)cc4)cc3)c(OC)c2O)ccc(C(=O)O)c1O (stereo not shown) [Compound 35]
zone of inhibition at 1000 µg/mL [2]: > 10 mm
zone of inhibition at 1000 µg/mL [3, 14]: > 10 mm
zone of inhibition at 1000 µg/mL (Escherichia coli DH5α; [14]): > 10 mm
MIC values, in words [5]: good to very good
MIC values, in words [7]: good to very good
zone of inhibition at 1000 µg/mL [8, 15]: > 10 mm
zone of inhibition at 1000 µg/mL (Bacillus subtilis DSM10; [16]): > 10 mm
MIC values (minimal inhibitory concentration), in words [11]: good to very good

COc1c(NC(=O)c2ccc(NC(=O)c3ccc(NC(=O)C(CC#N)NC(=O)c4ccc(NC(=O)COc5ccccc5)cc4)cc3)c(OC)c2O)ccc(C(=O)O)c1O (stereo not shown) [Compound 30]
zone of inhibition at 1000 µg/mL [2]: > 10 mm
zone of inhibition at 1000 µg/mL [3]: > 10 mm
zone of inhibition at 1000 µg/mL (Escherichia coli DH5α): > 10 mm
MIC values, in words [5]: good to very good
zone of inhibition at 1000 µg/mL [6]: > 10 mm
MIC values, in words [7]: good to very good
zone of inhibition at 1000 µg/mL [8]: > 10 mm
zone of inhibition at 1000 µg/mL (Bacillus subtilis DSM10): > 10 mm
MIC values, in words [10]: good to very good
MIC values (minimal inhibitory concentration), in words [11]: good to very good

COc1c(NC(=O)c2ccc(NC(=O)c3ccc(NC(=O)C(CC#N)NC(=O)c4ccc(NC(=O)C5C6CC7CC(C6)CC5C7)cc4)cc3)c(OC)c2O)ccc(C(=O)O)c1O (stereo not shown) [Compound 36]
zone of inhibition at 1000 µg/mL [2]: > 10 mm
zone of inhibition at 1000 µg/mL [3, 14]: > 10 mm
zone of inhibition at 1000 µg/mL (Escherichia coli DH5α; [14]): > 10 mm
MIC values, in words [4]: good to very good
MIC values, in words [5]: good to very good
zone of inhibition at 1000 µg/mL [6, 15]: > 10 mm
MIC values, in words [7]: good to very good
zone of inhibition at 1000 µg/mL [8, 15]: > 10 mm
zone of inhibition at 1000 µg/mL (Bacillus subtilis DSM10; [16]): > 10 mm
MIC values, in words [9]: good to very good
MIC values, in words [10]: good to very good
MIC values (minimal inhibitory concentration), in words [11]: good to very good

CN[C@@H]1[C@@H](O[C@H]2O[C@H](CO)[C@@H](N)[C@H](O)[C@H]2O)OC2C[C@@H](N)[C@@H](O[C@H]3[C@H](O)[C@@H](O)[C@H](N)C[C@@H]3N)OC2[C@@H]1O (stereo partly shown) [Apramycin, reference compound]
Antibacterial activity, diameter of inhibition area, Mycobacterium phlei DSM 750 [12]: 2.2
Antibacterial activity, diameter of inhibition area, Micrococcus luteus ([6]; concentration 1 mg/ml): 1.8
Antibacterial activity, diameter of inhibition area, Escherichia coli K12 (W1130) ([13]; concentration 1 mg/ml): 1.7
Antibacterial activity, diameter of inhibition area, Bacillus subtilis DSM 10 (Bacillus subtilis DSM10; concentration 1 mg/ml): 2.0
Antibacterial activity, diameter of inhibition area, Bacillus megaterium (Bacillus megaterium; concentration 1 mg/ml): 3.5

COc1c(NC(=O)c2ccc(NC(=O)c3ccc(NC(=O)[C@H](CC#N)NC(=O)c4ccc(NC(=O)/C(C)=C/c5ccc(O)cc5)cc4)cc3)c(OC)c2O)ccc(C(=O)O)c1O [A, beta-Albicidin]
Antibacterial activity, diameter of inhibition area, Mycobacterium phlei DSM 750 [12]: 1.5
Antibacterial activity, diameter of inhibition area, Micrococcus luteus ([6]; concentration 0.1 mg/ml): 2.0
Antibacterial activity, diameter of inhibition area, Micrococcus luteus ([6]; concentration 1 mg/ml): 2.8
Antibacterial activity, diameter of inhibition area, Escherichia coli K12 (W1130) ([13]; concentration 0.1 mg/ml): 1.9
Antibacterial activity, diameter of inhibition area, Escherichia coli K12 (W1130) ([13]; concentration 1 mg/ml): 2.6
Antibacterial activity, diameter of inhibition area, Bacillus subtilis DSM 10 (Bacillus subtilis DSM10; concentration 0.1 mg/ml): 1.4
Antibacterial activity, diameter of inhibition area, Bacillus subtilis DSM 10 (Bacillus subtilis DSM10; concentration 1 mg/ml): 2.8
Antibacterial activity, diameter of inhibition area, Bacillus megaterium (Bacillus megaterium; concentration 0.1 mg/ml): 1.2
Antibacterial activity, diameter of inhibition area, Bacillus megaterium (Bacillus megaterium; concentration 1 mg/ml): 2.0
